According to patent US20110207829A1, “CONTROL OF TERMITES, FIRE ANTS AND CARPENTER ANTS” (Bedoukian Research, Inc, priority 2008, published 2011):

How the values were obtained:
[1] = tested on: Formosan subterranean termites; test: Vapor Toxicity Under Subterranean Conditions (soil and wood); type: in vivo, Coptotermes formosanus; conditions: for termites killed (vapor toxicity under subterranean conditions): 25 mg
Method: (§1) Formosan subterranean termites were collected from bucket traps placed in City Park,
(§2) New Orleans, La. Altogether five colonies designated 1314, 1559, 1732, 1743 and 1756 were used in the tests. After collection, the termites (primarily workers and soldiers) were transferred to plastic boxes with moist spruce slats. The boxes were stored in an incubator maintained at 28° C., 65% RH, and constant darkness. Termites were used within one month of their collection.
Vapor Toxicity Under Subterranean Conditions. This test was also conducted in the
Qorpak™ bottles. A 35 by 40 by 7 mm piece of moist spruce was placed at the bottom of the bottle and covered with 40 g fine-sifted black soil. One hundred workers were released into each bottle and allowed to tunnel under the soil and into the wood. After 3 days, a test chemical was applied to a filter paper and suspended from the cap-liner. The chemicals were tested at a rate of 25 mg. […] The test was conducted with termites from 3 colonies and replicated 3 times.

[2] = tested on: Formosan subterranean termites; test: Assay for Vapor Toxicity (1 liter bottles); type: in vivo, Coptotermes formosanus
Method: as §1, §2
Assay for Vapor Toxicity. This test was conducted in 960 ml (approximately 1 liter) wide-mouth clear Qorpak™ (All-Pak, Inc.) bottles with PTFE lined caps. A 60 mm diameter glass Petri dish with a moist filter paper and 50 termite workers was placed at the bottom of each bottle. The test chemical was applied to a 1 cm diameter filter paper and suspended with an insect pin from the cap-liner. Each chemical was initially tested at 1 mg then at 0.1 and 0.5 mg. Since 0.1 and 0.5 mg doses caused very low and 100% mortality respectively, the final test was carried out at 0.25 mg. Each chemical was tested with different termite colonies and replicated three times. The bottles were placed in the incubator. Mortality was recorded after 1, 2 and 3 days by quickly taking the glass Petri dish with the termites out of the bottle (with a pair of long forceps) and replacing it after removing the dead workers.

[3] = tested on: Formosan subterranean termites; test: Assay for Contact Toxicity (treated filter paper in Petri dishes); type: in vivo, Coptotermes formosanus; conditions: 1 day; rate of 0.5 mg/liter
carpenter ants = test: Carpenter ant test in sealed jars; type: in vivo; conditions: within 24 hours; one drop (approximately 25 to 30 mg) on filter paper in sealed jar
Method: One drop (approximately 25 to 30 mg) of test compound (l-linaloo , l-carvone, and Styralyl Alcohol,) was applied to a filter paper within sealed jars (16 oz glass jar, 3½ inch diameter, 3⅞ inch high with plastic lids) containing ten carpenter ants per replicate with there being five replicates. Five negative controls with no test compounds were also run. The l-linalool, l-carvone, and styralyl alcohol each provided 100% mortality to the carpenter ants within 24 hours while the control produced 6% mortality over the same 24 hour period.

Compound	effectiveness against termites in soil and wood [1]	mortality to carpenter ants (carpenter ants)	termites killed (vapor toxicity under subterranean conditions) ([1]; 2 days)	also measured
C=C(C)C1CC=C(C)C(O)C1 (mixture of isomers) [carveol, reference compound]	totally ineffective	–	–	–
CC(O)c1ccccc1 (stereo not drawn) [Styralyl Alcohol, alpha-methyl benzyl alcohol]	–	100%	–	termites killed (vapor toxicity) ([2]; 2 days, 0.25 mg/liter volume): 100%; termites killed (contact toxicity) [3]: 98%; termites killed (vapor toxicity under subterranean conditions) ([1]; time not given): 11%
CC(C)=CCCC(C)CC=O (stereo not drawn) [citronellal, reference compound]	totally ineffective	–	–	–
CC(C)=CCC/C(C)=C/CO [geraniol, reference compound]	totally ineffective	–	–	–
C=C[C@](C)(O)CCC=C(C)C [l-linalool]	–	100%	69%	termites killed (vapor toxicity) ([2]; 1 day, 0.5 mg): 100%; termites killed (vapor toxicity) ([2]; 3 days, 0.25 mg): 70%
Cc1ccc(C(C)C)cc1 [p-cymene, reference compound]	totally ineffective	–	–	–
CCC(C)(O)CCCC(C)C (stereo not drawn) [tetrahydrolinalool]	–	–	53%	–
l-carvone	–	100%	57%	termites killed (vapor toxicity) ([2]; 1 day, 0.5 mg): 100%; termites killed (vapor toxicity) ([2]; 3 days, 0.25 mg): 95%; termites killed (vapor toxicity under subterranean conditions) ([1]; one day): 37%
